Test: Anti-HIV Cytoprotection Assay: The in vitro antiviral activity profile for CMX157 was evaluated for cell-type effects and HIV strain effects.

## C[C@H](Cn1cnc2c(N)ncnc21)OCP(=O)(O)OCCCOCC(=O)O
  EC50: > 10 µM

## CCCCCCCCCCCCCCCCOCCCOP(=O)(O)CO[C@H](C)Cn1cnc2c(N)ncnc21 [TENOFOVIR EXALIDEX]
  EC50: < 0.03 µM

## C[C@H](Cn1cnc2c(N)ncnc21)OCP(=O)(O)OCCCOCCCC(=O)O
  EC50: > 10 µM

## C[C@H](Cn1cnc2c(N)ncnc21)OCP(=O)(O)OCCCO
  EC50: > 10 µM

Reference: ChEMBL document CHEMBL5725298 (2017)
